Reference: patent publication US20250352482A1, “AMORPHOUS DOSAGE FORM CONTAINING EBSELEN” (SOUND PHARMACEUTICALS INC., priority 2022, published 2025)

Conditions: minipig, in vivo
Procedure: Method: The purpose of this study was to determine the pharmacokinetics of ebselen and its metabolites in male and female bama mini-pigs following twice daily (BID) oral administration of two test formulations, control ebselen capsules (Formulation 1) and ebselen-ASD/HME capsules (Formulation 2) at 200 mg/animal for 2.5 days. Three male and three female naïve Bama mini-pigs were assigned to this study. In phase 1, animals received five oral doses (BID on day 1, BID on day 2 and QD on day 3) of Formulation 1: each dose comprised control ebselen capsules (1 (Ebselen capsule, 200 mg+3 placebo capsules). After one week wash out period, the same animals received five oral doses (BID on day 1, BID on day 2 and QD on day 3) of Formulation 2: each dose comprised four Ebselen ASD/HME capsules (Formulation 2), 50 mg each. In each phase, there were 12 hour intervals between dosing. Blood samples were collected at 0.5, 1, 2, 3, 4, 6, 8 and 12 hours post the first and fifth dosing. Concentrations of ebselen, and ebselen glucuronide metabolite in plasma samples were determined by LC-MS/MS.

O=c1c2ccccc2[se]n1-c1ccccc1 [ebselen, 2-Phenyl-1,2-benzoselenazol-3 (2H)-one]
accumulation on systemic exposure to ebselen: No obvious accumulation
